Measured values taken from ChEMBL document CHEMBL3124908, “Design, synthesis, and evaluation of novel heteroaromatic analogs of curcumin as anti-cancer agents” (Eur J Med Chem, 2014).

Columns and labels:
DU-145 = assay: Cytotoxicity against human DU145 cells after 5 days by trypan blue exclusion assay; format: functional, cell-based; settings: DU-145, 120 h
PC-3 = assay: Cytotoxicity against human PC3 cells after 5 days by trypan blue exclusion assay; format: functional, cell-based; settings: PC-3, 120 h
A549 = assay: Cytotoxicity against human A549 cells after 5 days by trypan blue exclusion assay; format: functional, cell-based; settings: A549, 120 h
MDA-MB-231 = assay: Cytotoxicity against human MDA-MB-231 cells after 5 days by trypan blue exclusion assay; format: functional, cell-based; settings: MDA-MB-231, 120 h
HeLa = assay: Cytotoxicity against human HeLa cells after 5 days by trypan blue exclusion assay; format: functional, cell-based; settings: 120 h
[1] = Cytotoxicity against human MCF10A cells up to 1 uM after 5 days by trypan blue exclusion assay; format: cell-based; settings: mcf-10a, 120 h

SMILES: Cn1ccnc1/C=C1\CCC/C(=C\c2nccn2C)C1=O
- IC50 (DU-145): 630 nM
- IC50 (PC-3): 94 nM

SMILES: CN1C/C(=C\c2nccn2C)C(=O)/C(=C/c2nccn2C)C1
- IC50 (DU-145): 130 nM
- IC50 (PC-3): 93 nM

SMILES: Cn1ccnc1/C=C/C(=O)/C=C/c1nccn1C
- IC50 (DU-145): 57 nM
- IC50 (PC-3): 110 nM

SMILES: CC(C)n1ccnc1/C=C/C(=O)/C=C/c1nccn1C(C)C
- IC50 (DU-145): 54 nM
- IC50 (PC-3): 89 nM

SMILES: CCC(C)n1ccnc1/C=C/C(=O)/C=C/c1nccn1C(C)CC (centres undefined)
- IC50 (A549): 100 nM
- IC50 (MDA-MB-231): 130 nM
- IC50 (HeLa): 62 nM
- IC50 (DU-145): 35 nM
- Activity [1]: Non-toxic
- IC50 (PC-3): 63 nM

SMILES: CC(C)Cn1ccnc1/C=C/C(=O)/C=C/c1nccn1CC(C)C
- IC50 (A549): 110 nM
- IC50 (MDA-MB-231): 150 nM
- IC50 (HeLa): 390 nM
- IC50 (DU-145): 57 nM
- Activity [1]: Non-toxic
- IC50 (PC-3): 46 nM

SMILES: Cn1nccc1/C=C/C(=O)/C=C/c1ccnn1C
- IC50 (DU-145): 160 nM
- IC50 (PC-3): 130 nM

SMILES: O=C(/C=C/c1nccs1)/C=C/c1nccs1
- IC50 (DU-145): 55 nM
- IC50 (PC-3): 68 nM

SMILES: O=C(/C=C/c1cscn1)/C=C/c1cscn1
- IC50 (DU-145): 96 nM
- IC50 (PC-3): 94 nM

SMILES: Cc1nc(/C=C/C(=O)/C=C/c2coc(C)n2)co1
- IC50 (DU-145): 750 nM
- IC50 (PC-3): 840 nM

SMILES: Cc1cc(/C=C/C(=O)/C=C/c2cc(C)on2)no1
- IC50 (DU-145): 42 nM
- IC50 (PC-3): 250 nM

SMILES: Cc1cc(/C=C/C(=O)/C=C/c2cc(C)no2)on1
- IC50 (A549): 160 nM
- IC50 (MDA-MB-231): 156 nM
- IC50 (HeLa): 190 nM
- IC50 (DU-145): 16 nM
- Activity [1]: Non-toxic
- IC50 (PC-3): 41 nM

SMILES: O=C(/C=C/c1ccccn1)/C=C/c1ccccn1
- IC50 (A549): 51 nM
- IC50 (MDA-MB-231): 97 nM
- IC50 (HeLa): 120 nM
- IC50 (DU-145): 20 nM
- Activity [1]: Non-toxic
- IC50 (PC-3): 33 nM

SMILES: CC(C)n1ccnc1/C=C1\CN(C)C/C(=C\c2nccn2C(C)C)C1=O
- IC50 (DU-145): 140 nM
- IC50 (PC-3): 110 nM

SMILES: CCC(C)n1ccnc1/C=C1\CN(C)C/C(=C\c2nccn2C(C)CC)C1=O (centres undefined)
- IC50 (DU-145): 10 nM
- IC50 (PC-3): 6630 nM

SMILES: CN1C/C(=C\c2cnn(C)c2)C(=O)/C(=C/c2cnn(C)c2)C1
- IC50 (PC-3): 76000 nM

SMILES: CN1C/C(=C\c2ccnn2C)C(=O)/C(=C/c2ccnn2C)C1
- IC50 (DU-145): 1640 nM
- IC50 (PC-3): 1020 nM

SMILES: CN1C/C(=C\c2nccs2)C(=O)/C(=C/c2nccs2)C1
- IC50 (DU-145): 46 nM
- IC50 (PC-3): 420 nM

SMILES: CN1C/C(=C\c2cscn2)C(=O)/C(=C/c2cscn2)C1
- IC50 (DU-145): 430 nM
- IC50 (PC-3): 800 nM

SMILES: Cc1nc(/C=C2\CN(C)C/C(=C\c3coc(C)n3)C2=O)co1
- IC50 (DU-145): 76 nM
- IC50 (PC-3): 310 nM

SMILES: Cc1cc(/C=C2\CN(C)C/C(=C\c3cc(C)on3)C2=O)no1
- IC50 (DU-145): 34 nM
- IC50 (PC-3): 140 nM

SMILES: Cc1cc(/C=C2\CN(C)C/C(=C\c3cc(C)no3)C2=O)on1
- IC50 (DU-145): 690 nM
- IC50 (PC-3): 130 nM

SMILES: CC(C)n1ccnc1/C=C1\CCC/C(=C\c2nccn2C(C)C)C1=O
- IC50 (DU-145): 100 nM
- IC50 (PC-3): 160 nM

SMILES: CCC(C)n1ccnc1/C=C1\CCC/C(=C\c2nccn2C(C)CC)C1=O (centres undefined)
- IC50 (DU-145): 250 nM
- IC50 (PC-3): 830 nM

SMILES: CC(C)Cn1ccnc1/C=C1\CCC/C(=C\c2nccn2CC(C)C)C1=O
- IC50 (DU-145): 360 nM
- IC50 (PC-3): 470 nM

SMILES: Cn1cc(/C=C2\CCC/C(=C\c3cnn(C)c3)C2=O)cn1
- IC50 (DU-145): 90000 nM
- IC50 (PC-3): 130000 nM

SMILES: Cn1nccc1/C=C1\CCC/C(=C\c2ccnn2C)C1=O
- IC50 (DU-145): 730 nM
- IC50 (PC-3): 260 nM

SMILES: O=C1/C(=C/c2nccs2)CCC/C1=C\c1nccs1
- IC50 (DU-145): 120 nM
- IC50 (PC-3): 110 nM

SMILES: O=C1/C(=C/c2cscn2)CCC/C1=C\c1cscn1
- IC50 (DU-145): 75 nM
- IC50 (PC-3): 120 nM

SMILES: Cc1nc(/C=C2\CCC/C(=C\c3coc(C)n3)C2=O)co1
- IC50 (DU-145): 1650 nM
- IC50 (PC-3): 1970 nM

SMILES: Cc1cc(/C=C2\CCC/C(=C\c3cc(C)on3)C2=O)no1
- IC50 (DU-145): 70 nM
- IC50 (PC-3): 71 nM

SMILES: Cc1cc(/C=C2\CCC/C(=C\c3cc(C)no3)C2=O)on1
- IC50 (DU-145): 340 nM
- IC50 (PC-3): 54 nM

SMILES: COc1cc(/C=C/C(=O)CC(=O)/C=C/c2ccc(O)c(OC)c2)ccc1O [CURCUMIN]
- IC50 (A549): 15000 nM
- IC50 (MDA-MB-231): 880 nM
- IC50 (HeLa): 12600 nM
- IC50 (DU-145): 300 nM
- IC50 (PC-3): 1980 nM
